Data published in patent publication US12441959B2, “Composition containing organic ammonium salt” (MIYOSHI OIL & FAT CO., LTD., priority 2019, dated 2025).

Assay: Surface resistance measurement with high resistance meter
Format: physicochemical
Conditions: 0.7 g (in terms of anhydride) applied
Method: Surface resistance measurements were performed on compound 1 that had not undergone emulsification adjustment and on glycerin and the emulsification composition that had already undergone emulsification adjustment. In the comparison of compound 1 that had not undergone emulsification adjustment and glycerin, 0.7 g (content in terms of anhydride) of each of the compound 1 and glycerin was applied to an artificial leather made of polyurethane, followed by using a high resistance meter (Stack TR-2 by Tokyo Electronics Co., Ltd.) to measure a surface resistance value. Further, in the comparison by the emulsified composition, 0.05 g of the emulsification compositions shown in Table 11 were each applied to an artificial leather made of polyurethane to measure a surface resistance value using a high resistance meter.
Further, 0.7 g (content in terms of anhydride) of sodium lactate was applied to an artificial leather made of polyurethane before drying the same to volatilize water. As the result, the coating surface was turned into a solid state whose surface resistance value, measured in a similar manner as above, turned out to be 2×10^8Ω; confirmed were a non-volatility of the compound 1 (lower than 1×10^8Ω) and an effect of liquidity at 25° C. (capability of evenly coating a coating object).

| SMILES | surface resistance value (not emulsified, liquid state at measurement) | surface resistance value (dried to volatilize water, solid state) |
| --- | --- | --- |
| OCC(O)CO [glycerin] | 5×10^8 Ω | – |
| CC(O)C(=O)[O-].[Na+] (centres unmarked) [sodium lactate] | – | 2×10^8 Ω |
